In patent publication US8592442B2, “Nilotinib HCl crystalline forms” (Teva Pharmaceutical Industries Ltd., priority 2008, dated 2013):
Counter-ions that a name gives are not always drawn.

How the values were obtained:
[1] = as described in WO '870; cited from earlier work
[2] = Polymorphic conversion when heated; assay type: physicochemical
[3] = as described in WO '870; cited from earlier work; remark: listed apart in the source

With `Cc1cn(-c2cc(NC(=O)c3ccc(C)c(Nc4nccc(-c5cccnc5)n4)c3)cc(C(F)(F)F)c2)cn1` [Nilotinib HCl form B, Nilotinib HCl] as the compound, how does the “solubility in IPA” value [1] read?
Its value is “not soluble in IPA”.

Which “conversion to other forms when heated” value [2] does the source give for `Cc1cn(-c2cc(NC(=O)c3ccc(C)c(Nc4nccc(-c5cccnc5)n4)c3)cc(C(F)(F)F)c2)cn1` [Nilotinib HCl crystalline form T17, Nilotinib HCl] here?
Its value is “does not convert to other forms when heated”.

For `Cc1cn(-c2cc(NC(=O)c3ccc(C)c(Nc4nccc(-c5cccnc5)n4)c3)cc(C(F)(F)F)c2)cn1` [Nilotinib HCl form A, Nilotinib HCl], which “conversion to other polymorphs when heated” value [3] is on record?
Its value is “converted to other polymorphs”.
